These are literature values, as cited in PMC10036820, “In vivo evaluation of integrin αvβ6-targeting peptide in NSCLC and brain metastasis” (Frontiers in Oncology, 2023).

For data set [1], the system named is HNSCC primary tumor and lymph node metastases. More on the design: method as in PMID 29674419. The note with it: PET/CT, patient with HNSCC; ref [16].
A further data set relates to integrin αvβ6. Details: method as in PMID 29674419. The note with it: comparison in words; ref [16].

With “GRGDLGRL [SFLAP3, SFTI-based peptide containing latency-associated peptide (GRGDLGRL)]”, in data set [1], the “SUVmax, lymph node metastases” value is on record as 4.1 and the “SUVmax, primary tumor” value was 5.1. Moreover, the “affinity to integrin αvβ6 relative to SFITGv6” value with integrin αvβ6 was “better affinity”.
